Article PMC2894972, “Protein-Protein Interaction Antagonists as Novel Inhibitors of Non-Canonical Polyubiquitylation” (PLoS ONE, 2010)

Molecular target: T1, Ubc13-Uev1 heterodimer (Homo sapiens, UniProt P61088)
T1 construct: gene UBE2N; heterodimer of purified recombinant Ubc13 and Uev1; with Ubiquitin-conjugating enzyme E2 variant 1
Test: surface plasmon resonance competition: Ubc13 preincubated with compound, injected over immobilized Uev1
Assay type: binding
Conditions: inhibition of Ubc13-Uev1 interaction; Ubc13 400 nM; 10 mM HEPES, 0.15 M NaCl, pH 7.4; legend prints 1.1 µM

T1 sequence (P61088 whole entry): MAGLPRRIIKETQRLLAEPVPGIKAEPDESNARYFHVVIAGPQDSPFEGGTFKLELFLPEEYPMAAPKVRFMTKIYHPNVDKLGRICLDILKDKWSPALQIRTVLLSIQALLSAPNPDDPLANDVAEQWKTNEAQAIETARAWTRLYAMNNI
T1 sequence (Q13404 2-147 partner): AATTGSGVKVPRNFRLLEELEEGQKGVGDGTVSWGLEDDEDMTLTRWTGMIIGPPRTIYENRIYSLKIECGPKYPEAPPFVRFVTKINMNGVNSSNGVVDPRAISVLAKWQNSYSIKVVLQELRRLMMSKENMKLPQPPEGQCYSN

`NC(=O)CN(CCc1ccccn1)C(=O)CC1C(=O)N(CCc2ccc(F)cc2)CC(=O)N1CCc1ccc(F)cc1` (stereo not shown) [IIa, compound IIa] was tested, and the IC50 was 1100 nM.
